Key:
BTK = BTK (Homo sapiens (Human), UniProt Q06187); assay: BTK enzyme activity, IMAP assay; format: biochemical; settings: 60 min pre-incubation; 5 μM ATP
Procedure: BTK enzyme activity is measured using the IMAP (immobilized metal ion affinity-based fluorescence polarization) assay as outlined below.
BTK enzyme (His-BTK (Millipore catalog #14-552)), is diluted to 0.4 U/mL in KR buffer (10 mM Tris-HCl, 10 mM MgCl2, 0.01% Tween-20, 0.05% NaN3, 1 mM DTT, 2 mM MnCl2, pH 7.2).
(§1) Serial dilutions log 10 from 2 mM to 63.2 nM of test compounds are made in 100% DMSO. The dilutions in DMSO are then diluted 50-fold in KR-buffer. Final compound concentration range in the assay ranged from 10 μM to 0.316 nM.
The assay is performed as follows: 5 μL/well of test compound in KR buffer (final DMSO concentration in the assay is 1%) is mixed with 5 µl/well of 0.4 U/mL BTK enzyme (final concentration in the assay is 0.1 U/mL). Test compounds and BTK enzyme are pre-incubated 60 minutes at room temperature, before adding 5 μL/well of 200 nM Fluorescin labeled substrate peptide (Blk/Lyntide substrate, e.g. #R7188/#R7233, Molecular Devices) in KR-buffer. Final peptide substrate concentration in assay is 50 nM. […] Following incubation for 2 hours at room temperature the enzyme reaction is stopped by adding 40 μL/well IMAP Progressive Binding Solution (according to suppliers (Molecular Devices) protocol using 75% 1× buffer A and 25% 1× buffer B with 1:600 Progressive Binding Solution). After 60 min incubation at room temperature in the dark the FP signal is read. Fluorescence at 535 nm is measured using parallel and perpendicular filters to determine differences in rotation due to binding of the phosphorylated substrate peptide to the beads. Values are calculated as percentage of the difference in readout (ΔmPi) of the controls with and without ATP. IC50 values are determined by curve fitting of the experimental results using Activity Base.

Txk = Txk (Homo sapiens (Human), UniProt P42681); assay: TXK enzyme activity, IMAP assay; format: biochemical; settings: 60 min pre-incubation; 1 μM ATP
Procedure: TXK enzyme activity is measured using the IMAP (immobilized metal ion affinity-based fluorescence polarization) assay as outlined below.
TXK enzyme (Millipore #14-761), is diluted to 2.5 U/mL in KR buffer (10 mM Tris-HCl, 10 mM MgCl2, 0.01% Tween-20, 0.1% NaN3, 1 mM DTT, 2 mM MnCl2, pH 7.5).
as §1
The assay is performed as follows: 5 μL/well of test compound in KR buffer (final DMSO concentration in the assay is 1%) is mixed with 5 μL/well of 2.5 U/mL TXK enzyme (final concentration in the assay is 0.625 U/mL (4.4 nM)). Test compounds and TXK enzyme are pre-incubated 60 minutes at room temperature, before adding 5 μL/well of 200 nM Fluorescin labeled substrate peptide (Blk/Lyntide substrate #R7188, Molecular Devices) in KR-buffer. Final peptide substrate concentration in assay is 50 nM. […] Following incubation for 2 hours at room temperature the enzyme reaction is stopped by adding 40 μL/well IMAP Progressive Binding Solution (according to suppliers (Molecular Devices) protocol using 60% 1× buffer A and 40% 1× buffer B with 800× diluted beads (Progressive Binding System, Molecular Devices). After 60 min incubation at room temperature in the dark the FP signal is read. Fluorescence at 535 nm is measured using parallel and perpendicular filters to determine differences in rotation due to binding of the phosphorylated substrate peptide to the beads. Values are calculated as percentage of the difference in readout (ΔmPi) of the controls with and without ATP. IC50 values are determined by curve fitting of the experimental results using Activity Base.

Bmx = Bmx (Homo sapiens (Human), UniProt P51813); assay: BMX enzyme activity, IMAP assay; format: biochemical; settings: 60 min pre-incubation; 5 μM ATP
Procedure: BMX enzyme activity is measured using the IMAP (immobilized metal ion affinity-based fluorescence polarization) assay as outlined below.
(§2) The dilutions in DMSO are then diluted 50-fold in KR-buffer.
(§3) Test compounds and BMX enzyme are pre-incubated 60 minutes at room temperature, before adding 5 μL/well of 200 nM Fluorescin labeled substrate peptide (Blk/Lyntide substrate #R7188, Molecular Devices) in KR-buffer. Final peptide substrate concentration in assay is 50 nM. […] IC50 values are determined by curve fitting of the experimental results using Activity Base.

ITK = ITK (Homo sapiens (Human), UniProt Q08881); assay: ITK enzyme activity, IMAP assay; format: biochemical; settings: 60 min pre-incubation; 5 μM ATP
Procedure: ITK enzyme activity is measured using the IMAP (immobilized metal ion affinity-based fluorescence polarization) assay as outlined below.
ITK enzyme (Millipore #14-660M) is diluted to 0.2 U/mL in KR buffer (10 mM Tris-HCl, 10 mM MgCl2, 0.01% Tween-20, 0.1% NaN3, 1 mM DTT, 2 mM MnCl2, pH 7.5)
as §2
as §3, with “ITK” for “BMX”, “#R8124,” for “#R7188,”

[1] = test system: CD69 in CD19+ B cells of anti-IgM stimulated PBMCs; assay: Human peripheral blood mononuclear cell (PBMC) CD69 assay; format: cell-based; settings: 2 h compound, then anti-IgM 18 hours
Procedure: Example 44—Human Peripheral Blood Mononuclear Cell (PBMC) CD69 Assay
Whole blood was collected in heparin-coated Vacutainer tubes (BD Biosciences, San Jose, Calif.) and used for isolation of PBMCs using Ficoll-Hypaque (Pharmacia, Uppsala, Sweden). Isolated PBMCs were cryopreserved in 90% FCS/10% DMSO until later use.
Cells from cryogenic storage were thawed in a 37° C. water bath, diluted with RPMI/1% FCS, washed 2 times, and then plated at 1×10^5 cells per well in RPMI/10% FCS.
Serial dilutions log 10 from 10 mM to 316 nM of test compounds are made in 100% DMSO, followed by a 100-fold dilution into RPMI/1% FCS. For each well, 10 μL was then transferred to the deep well plate containing 90 μL of PBMC cells. Final compound concentration range in the assay ranged from 10 μM to 0.316 nM, with a final DMSO concentration of 0.1%. PBMCs are then incubated for 2 h at 37° C. in presence or absence of test compounds, prior to stimulation with goat F(ab′)2 anti-IgM (Southern Biotech, #2022-14, final concentration in assay 5 μg/mL) for 18 hours.
Following stimulation with anti-IgM, PBMCs were incubated on ice for 30 min with anti-CD69-FITC, anti-CD19-BV421 (BD Biosciences #555530 and #562440, respectively) and 7AAD (Life Technologies #A1310). Flow cytometry was performed and fluorescence values were obtained from the CD69-FITC channel in CD19+ gated life B cells. ECso values are determined by curve fitting of the experimental results using GraphPad Prism.

EGFR WT = EGFR WT (Homo sapiens (Human), UniProt P00533); assay: EGFR enzyme activity, IMAP assay; format: biochemical; settings: 60 min pre-incubation; 2 μM ATP
Procedure: EGFR enzyme activity is measured using the IMAP (immobilized metal ion affinity-based fluorescence polarization) assay as outlined below.
EGFR enzyme (Invitrogen catalog #PR7295B), is diluted to 2.5 μg/mL in KR buffer (10 mM Tris-HCl, 10 mM MgCl2, 0.01% Tween-20, 0.1% NaN3, 1 mM DTT, 2 mM MnCl2, pH 7.5).
Final peptide substrate concentration in assay is 50 nM. […] Following incubation for 60 min at room temperature in the dark the enzyme reaction is stopped by adding 40 μL/well IMAP Progressive Binding Solution (according to suppliers (Molecular Devices) protocol using 20% 1× buffer A and 80% 1× buffer B with 600× diluted beads). After 60 min incubation at room temperature in the dark the FP signal is read. […] Values are calculated as percentage of the difference in readout (ΔmPi) of the controls with and without ATP. IC50 values are determined by curve fitting of the experimental results using GraphPad Prism6.

Chain of Txk (P42681 whole entry): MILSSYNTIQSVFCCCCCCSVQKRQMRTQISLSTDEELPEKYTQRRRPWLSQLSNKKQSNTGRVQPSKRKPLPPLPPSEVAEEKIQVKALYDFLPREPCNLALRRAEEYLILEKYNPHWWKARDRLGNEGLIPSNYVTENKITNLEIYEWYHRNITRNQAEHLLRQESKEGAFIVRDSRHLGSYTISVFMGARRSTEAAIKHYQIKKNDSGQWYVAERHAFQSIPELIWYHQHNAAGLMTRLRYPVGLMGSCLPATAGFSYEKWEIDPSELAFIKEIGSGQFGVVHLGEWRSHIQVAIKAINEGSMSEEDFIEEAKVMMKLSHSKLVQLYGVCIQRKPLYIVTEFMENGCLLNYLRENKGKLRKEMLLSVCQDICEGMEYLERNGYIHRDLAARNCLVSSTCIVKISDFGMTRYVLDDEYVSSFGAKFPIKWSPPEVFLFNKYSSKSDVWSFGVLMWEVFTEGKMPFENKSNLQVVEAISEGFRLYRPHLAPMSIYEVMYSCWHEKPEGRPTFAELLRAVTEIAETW
Chain of ITK (Q08881 whole entry): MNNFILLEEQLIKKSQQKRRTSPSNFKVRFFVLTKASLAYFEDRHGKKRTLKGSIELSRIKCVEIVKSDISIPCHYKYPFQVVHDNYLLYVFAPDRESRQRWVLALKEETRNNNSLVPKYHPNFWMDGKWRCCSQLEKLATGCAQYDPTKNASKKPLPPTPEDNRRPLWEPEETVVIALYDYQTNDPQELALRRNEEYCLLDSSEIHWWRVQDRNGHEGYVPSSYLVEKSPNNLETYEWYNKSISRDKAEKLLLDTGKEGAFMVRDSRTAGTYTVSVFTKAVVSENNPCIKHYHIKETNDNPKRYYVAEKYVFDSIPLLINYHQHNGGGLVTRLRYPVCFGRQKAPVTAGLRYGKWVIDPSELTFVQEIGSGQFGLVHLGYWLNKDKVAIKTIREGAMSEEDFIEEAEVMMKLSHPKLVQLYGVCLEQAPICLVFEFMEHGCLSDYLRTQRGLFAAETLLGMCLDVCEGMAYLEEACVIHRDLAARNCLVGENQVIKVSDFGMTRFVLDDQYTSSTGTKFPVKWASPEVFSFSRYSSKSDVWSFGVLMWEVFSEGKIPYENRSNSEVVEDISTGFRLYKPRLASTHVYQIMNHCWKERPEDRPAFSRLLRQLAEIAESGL
Chain of BTK (Q06187 whole entry): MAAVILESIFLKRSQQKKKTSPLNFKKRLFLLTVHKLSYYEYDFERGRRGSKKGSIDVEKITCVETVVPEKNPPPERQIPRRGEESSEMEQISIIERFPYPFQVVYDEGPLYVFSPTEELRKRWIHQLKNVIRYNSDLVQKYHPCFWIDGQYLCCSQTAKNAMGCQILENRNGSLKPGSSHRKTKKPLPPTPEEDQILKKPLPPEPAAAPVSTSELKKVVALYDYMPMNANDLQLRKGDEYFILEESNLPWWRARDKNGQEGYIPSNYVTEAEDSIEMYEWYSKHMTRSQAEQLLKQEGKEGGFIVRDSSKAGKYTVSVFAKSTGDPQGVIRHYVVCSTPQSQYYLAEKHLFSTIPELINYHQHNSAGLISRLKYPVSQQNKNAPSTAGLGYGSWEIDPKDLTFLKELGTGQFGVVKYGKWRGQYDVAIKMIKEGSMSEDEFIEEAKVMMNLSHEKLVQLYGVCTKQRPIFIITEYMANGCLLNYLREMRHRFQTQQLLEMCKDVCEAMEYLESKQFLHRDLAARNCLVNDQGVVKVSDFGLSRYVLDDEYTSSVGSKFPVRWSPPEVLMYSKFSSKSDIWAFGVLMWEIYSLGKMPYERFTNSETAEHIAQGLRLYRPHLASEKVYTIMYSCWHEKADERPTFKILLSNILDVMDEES
Chain of Bmx (P51813 whole entry): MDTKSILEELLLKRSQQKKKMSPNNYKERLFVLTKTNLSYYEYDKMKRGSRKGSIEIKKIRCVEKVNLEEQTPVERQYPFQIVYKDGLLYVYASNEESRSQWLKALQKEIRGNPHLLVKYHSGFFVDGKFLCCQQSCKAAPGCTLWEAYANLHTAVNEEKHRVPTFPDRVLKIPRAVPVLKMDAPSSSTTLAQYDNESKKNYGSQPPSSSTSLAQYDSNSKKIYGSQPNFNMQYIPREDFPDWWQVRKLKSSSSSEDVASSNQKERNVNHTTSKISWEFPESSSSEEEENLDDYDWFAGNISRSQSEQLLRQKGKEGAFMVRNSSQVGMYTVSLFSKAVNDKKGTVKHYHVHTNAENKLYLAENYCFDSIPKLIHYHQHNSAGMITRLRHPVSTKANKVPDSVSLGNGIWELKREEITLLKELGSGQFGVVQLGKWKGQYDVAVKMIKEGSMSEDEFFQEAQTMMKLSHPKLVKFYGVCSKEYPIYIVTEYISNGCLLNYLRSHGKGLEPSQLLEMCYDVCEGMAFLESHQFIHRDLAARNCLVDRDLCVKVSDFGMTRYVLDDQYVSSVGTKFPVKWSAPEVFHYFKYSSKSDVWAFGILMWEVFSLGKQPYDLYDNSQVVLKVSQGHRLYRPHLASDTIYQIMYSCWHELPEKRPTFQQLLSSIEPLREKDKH
Chain of EGFR WT (P00533 25-1210): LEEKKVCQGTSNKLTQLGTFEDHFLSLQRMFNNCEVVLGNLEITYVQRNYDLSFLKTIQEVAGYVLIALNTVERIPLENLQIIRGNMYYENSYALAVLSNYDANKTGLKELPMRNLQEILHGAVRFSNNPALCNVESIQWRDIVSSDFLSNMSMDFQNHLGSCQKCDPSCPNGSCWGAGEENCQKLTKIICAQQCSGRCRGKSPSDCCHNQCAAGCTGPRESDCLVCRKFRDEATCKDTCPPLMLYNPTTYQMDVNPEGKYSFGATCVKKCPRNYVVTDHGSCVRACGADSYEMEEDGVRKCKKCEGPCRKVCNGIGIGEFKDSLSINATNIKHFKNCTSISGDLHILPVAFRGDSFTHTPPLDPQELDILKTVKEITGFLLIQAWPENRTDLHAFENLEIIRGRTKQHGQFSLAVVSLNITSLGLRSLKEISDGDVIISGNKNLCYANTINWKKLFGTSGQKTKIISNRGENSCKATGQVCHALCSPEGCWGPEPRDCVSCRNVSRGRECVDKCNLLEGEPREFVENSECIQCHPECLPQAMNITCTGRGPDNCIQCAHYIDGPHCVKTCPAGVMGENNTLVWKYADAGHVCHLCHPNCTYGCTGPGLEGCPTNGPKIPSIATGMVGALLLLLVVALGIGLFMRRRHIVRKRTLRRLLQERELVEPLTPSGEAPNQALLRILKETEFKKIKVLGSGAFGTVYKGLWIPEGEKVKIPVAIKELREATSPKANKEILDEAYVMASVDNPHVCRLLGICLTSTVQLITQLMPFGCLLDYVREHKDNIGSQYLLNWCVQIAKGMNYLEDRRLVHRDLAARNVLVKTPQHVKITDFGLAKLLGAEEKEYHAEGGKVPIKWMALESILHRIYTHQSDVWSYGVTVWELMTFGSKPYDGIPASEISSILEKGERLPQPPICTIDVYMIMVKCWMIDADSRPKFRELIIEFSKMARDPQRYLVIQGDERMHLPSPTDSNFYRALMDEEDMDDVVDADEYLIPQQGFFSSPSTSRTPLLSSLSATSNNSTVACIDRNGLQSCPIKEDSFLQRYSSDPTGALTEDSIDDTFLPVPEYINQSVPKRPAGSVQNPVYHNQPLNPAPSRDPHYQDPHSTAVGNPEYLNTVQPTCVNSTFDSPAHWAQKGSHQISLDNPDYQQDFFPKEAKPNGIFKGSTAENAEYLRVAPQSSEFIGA

SMILES | IC50 (BTK) | IC50 (Txk) | IC50 (Bmx) | IC50 (ITK) | IC50 (EGFR WT) | EC50 ([1]; Homo sapiens, PBMC) | EC50 ([1]; PBMC) | EC50 [1]
COC/C=C/C(=O)N[C@@H](C)c1nc(-c2ccc(C(=O)Nc3ccc(C)cn3)c(OC)c2)c2c(N)nccn12 | 3.9 nM | 2.7 nM | 3 nM | > 1000 nM | > 1000 nM | 1.9 nM | – | –
CC#CC(=O)N1CCC[C@H]1c1nc(-c2ccc(C(=O)Nc3nccs3)c(OC)c2)c2c(N)nccn12 | 3.9 nM | 7.1 nM | 12 nM | > 1000 nM | > 1000 nM | 11 nM | – | –
CC#CC(=O)N1CCC[C@H]1c1nc(-c2ccc(C(=O)Nc3cscn3)cc2)c2c(N)nccn12 | 6.3 nM | 33.5 nM | – | > 1000 nM | – | – | 9.5 nM | –
CC#CC(=O)N[C@@H](C)c1nc(-c2ccc(C(=O)Nc3ccc(C)cn3)c(OC)c2)c2c(N)nccn12 | 1.9 nM | 1.7 nM | 2.4 nM | > 1000 nM | > 1000 nM | 1.3 nM | – | –
COC/C=C/C(=O)N[C@@H](C)c1nc(-c2ccc(C(=O)Nc3ccc(C)cn3)cc2)c2c(N)nccn12 | 2.4 nM | 1.5 nM | 2.9 nM | 478 nM | 360 nM | 4.2 nM | – | –
CC#CC(=O)N1CCC[C@H]1c1nc(-c2ccc(C(=O)Nc3ccc(C)cn3)c(OC)c2)c2c(N)nccn12 | 6.7 nM | 11 nM | 11 nM | > 1000 nM | > 1000 nM | 5.2 nM | – | –
CC#CC(=O)N[C@@H](C)c1nc(-c2ccc(C(=O)Nc3cc(C(F)(F)F)ccn3)c(OC)c2)c2c(N)nccn12 | 2.2 nM | 4.7 nM | 3.5 nM | > 1000 nM | > 1000 nM | 1.4 nM | – | –

The next lines start with results.

IC50 (BTK) | IC50 (Txk) | IC50 (Bmx) | IC50 (ITK) | IC50 (EGFR WT) | SMILES | EC50 ([1]; Homo sapiens, PBMC) | EC50 ([1]; PBMC) | EC50 [1]
1.8 nM | 1.8 nM | 1.9 nM | 119 nM | 327 nM | CC#CC(=O)N[C@@H](C)c1nc(-c2ccc(C(=O)Nc3cc(C(F)(F)F)ccn3)cc2)c2c(N)nccn12 | 0.7 nM | – | –
4.2 nM | 12 nM | 16 nM | – | – | CC#CC(=O)N(C)[C@@H](C)c1nc(-c2ccc(C(=O)Nc3ccc(C)cn3)c(OC)c2)c2c(N)nccn12 [drawing 83] | 3.7 nM | – | –
2 nM | 3 nM | 4.2 nM | > 1000 nM | > 1000 nM | CC#CC(=O)N(C)[C@@H](C)c1nc(-c2ccc(C(=O)Nc3ccccn3)c(OC)c2)c2c(N)nccn12 | 2.4 nM | – | –
2.1 nM | 3.7 nM | 7.5 nM | > 1000 nM | 123 nM | CC#CC(=O)N(C)[C@@H](C)c1nc(-c2ccc(C(=O)Nc3ccccn3)cc2)c2c(N)nccn12 | 1.9 nM | – | –
1.8 nM | 3.9 nM | 4.5 nM | 254 nM | 354 nM | CC#CC(=O)N(C)[C@@H](C)c1nc(-c2ccc(C(=O)Nc3ccc(C)cn3)cc2)c2c(N)nccn12 | 1.7 nM | – | –
1.6 nM | 2 nM | 3.1 nM | > 1000 nM | > 1000 nM | CC#CC(=O)N[C@@H](C)c1nc(-c2ccc(C(=O)Nc3ccccn3)c(OC)c2)c2c(N)nccn12 | 1.3 nM | – | –
5.1 nM | 5.1 nM | 6.8 nM | – | – | CC#CC(=O)N(C)[C@@H](C)c1nc(-c2ccc(C(=O)Nc3ccc(C)cn3)c(OC)c2)c2c(N)nccn12 [drawing 89] | – | – | 5.1 nM
1.6 nM | 2.1 nM | 2.9 nM | 287 nM | – | CC#CC(=O)N[C@@H](C)c1nc(-c2ccc(C(=O)Nc3ccc(C)cn3)cc2)c2c(N)nccn12 | 1 nM | – | –
11 nM | 14 nM | 15 nM | – | – | COC/C=C/C(=O)N(C)[C@@H](C)c1nc(-c2ccc(C(=O)Nc3ccc(C)cn3)cc2)c2c(N)nccn12 | 3.5 nM | – | –
3.5 nM | 13 nM | 7.9 nM | > 1000 nM | > 1000 nM | CC#CC(=O)N(C)[C@@H](C)c1nc(-c2ccc(C(=O)Nc3cc(C(F)(F)F)ccn3)c(OC)c2)c2c(N)nccn12 | 2.7 nM | – | –

Source: patent US11110088B2, “Imidazopyrazine inhibitors of Bruton's tyrosine kinase” (Acerta Pharma B.V., priority 2015, dated 2021)
